PubChem BioAssay (NCI)
Where “and” joins values, the source holds several entries; their conditions need not be identical. Equal entries are not always repeated.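 The compound was tested at five concentrations on cells cultured in 96-well plates, with a 48-hour exposure period. GI50 marks 50% less growth. TGI marks complete inhibition of growth.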

Legend:
Test in all cases: growth of human tumour cells (NCI), 48 h
786-0 renal = test system: 786-0 renal
HL-60(TB) leukemia = test system: HL-60(TB) leukemia
MALME-3M melanoma = test system: MALME-3M melanoma
MCF7 breast = test system: MCF7 breast
MOLT-4 leukemia = test system: MOLT-4 leukemia
NCI-H460 lung = test system: NCI-H460 lung
SF-295 CNS = test system: SF-295 CNS
SK-MEL-2 melanoma = test system: SK-MEL-2 melanoma
SNB-75 CNS = test system: SNB-75 CNS
SR leukemia = test system: SR leukemia

Compound | GI50 (786-0 renal) | TGI (786-0 renal) | GI50 (HL-60(TB) leukemia) | TGI (HL-60(TB) leukemia) | GI50 (MALME-3M melanoma) | TGI (MALME-3M melanoma) | GI50 (MCF7 breast) [µM] | TGI (MCF7 breast) [µM] | GI50 (MOLT-4 leukemia) | TGI (MOLT-4 leukemia) [µM] | GI50 (NCI-H460 lung) [µM] | TGI (NCI-H460 lung) [µM] | TGI (SF-295 CNS) [µM] | GI50 (SK-MEL-2 melanoma) | TGI (SK-MEL-2 melanoma) [µM] | GI50 (SNB-75 CNS) | TGI (SNB-75 CNS) | GI50 (SR leukemia) | TGI (SR leukemia) [µM] | GI50 (SF-295 CNS) [µM]
CNC(=O)c1ccc(Nc2nc(OC3CCCC3)c3c(-c4ccc5nc(C)oc5c4)c[nH]c3n2)c(OC)c1 | > 43.4 µM | > 100 µM | 29.2 µM | > 100 µM | 21.6 µM | > 100 µM | 0.252 | > 100 | 1.63 µM | > 100 | 0.119 | > 100 | > 100 | > 51.3 µM | > 100 | 0.474 µM | > 100 µM | 0.0861 µM | > 100 | –
Nc1ccn(C2OC(COP(=O)(O)O)C(O)C2O)c(=O)n1 (centres undefined) | – | > 100 µM | – | 6.48 µM | – | > 100 µM | – | > 100 | – | 13.2 | – | > 27.8 | > 100 | – | > 100 | – | > 100 µM | – | > 44.7 | –
Cc1c(N(C(=O)c2cc(-c3cc(Cl)ccc3C(=O)N3Cc4ccccc4C[C@H]3CN3CCOCC3)n(C)c2C)c2ccc(O)cc2)cc(C#N)n1C | 12.5 µM | 36.8 µM | 2.38 µM | 29.1 µM | 20.8 µM | 64.3 µM | 23.5 | > 100 | 2.98 µM | > 100 | 31.3 | > 100 | > 100 | 11.8 µM | 30.7 | 9.79 µM | 30.9 µM | 6.25 µM | > 100 | 13.2
OCC1OC(O)C(N=Cc2ccc3c(c2)OCO3)C(O)C1O (centres undefined) | – | > 100 µM | – | > 100 µM | – | > 100 µM | – | > 100 | – | > 100 | – | > 100 | > 100 | – | > 100 | – | > 100 µM | – | > 100 | –
CC1=Cc2cc3[n-]c(cc4nc(cc5[n-]c(cc1n2)c(C)c5CCC(=O)O)C(CCC(=O)O)=C4C)cc3C.[Cu+2] | > 1 µM and 21.1 µM | > 1 µM and 54.5 µM | > 1 µM and 22.2 µM | > 1 µM and 51.2 µM | > 1 µM and 7.39 µM | > 1 µM and 18.6 µM | 63.7 | > 100 | > 1 µM and 46.3 µM | > 88.7 | > 100 | > 100 | > 96.9 | > 1 µM and 10.9 µM | > 81.7 | > 1 µM and 8.39 µM | > 1 µM and 18.7 µM | > 1 µM and 45.1 µM | > 75.7 | 51.3
CCOC(=O)c1ccc2[nH]c(Cc3[nH]c4ccc(C(=O)OCC)cc4c3C)c(C)c2c1 | 4.51 µM | 31.4 µM | 3.81 µM | 46.8 µM | 3.73 µM | 17.7 µM | 1.98 | 22.6 | 1.83 µM | 26.8 | 0.167 | 6.44 | 13.5 | 14.1 µM | 40.5 | 4.2 µM | 23.4 µM | 0.425 µM | 15.1 | 1.42
CCC(=O)Nc1ccc2c(c1)CN1C(=O)c3ccccc3C1=N2 | > 100 µM | > 100 µM | > 100 µM | > 100 µM | > 100 µM | > 100 µM | > 100 | > 100 | > 100 µM | > 100 | > 100 | > 100 | > 100 | > 100 µM | > 100 | > 100 µM | > 100 µM | > 100 µM | > 100 | > 100
COc1cc(/C=C/C(=O)CC(=O)/C=C/c2ccc(OC(=O)CCNC34CC5CC(CC(C5)C3)C4)c(OC)c2)ccc1OC(=O)CCNC12CC3CC(CC(C3)C1)C2 | 3.2 µM | 21.3 µM | 2.27 µM | 9.27 µM | 5.28 µM | 17.9 µM | 2.36 | 9.89 | 3.08 µM | 16.2 | 2.5 | 6.33 | 6.99 | 4.48 µM | 16.3 | 4.85 µM | 22.5 µM | 2.37 µM | 8.84 | 2.56
COc1ccc(C(=O)c2ccc(OC)cc2OC)cc1 | 5.32 µM | > 100 µM | 2.94 µM | > 100 µM | 5.83 µM | > 100 µM | 2.75 | > 100 | 4.9 µM | > 100 | 3.74 | 89.5 | 9.4 | 2.89 µM | 12.2 | 1.76 µM | 5.57 µM | 0.891 µM | > 100 | 2.33
Cc1cc(Nc2nc(N3CCOCC3)nc3ccccc23)n[nH]1 | 3.91 µM | 26.1 µM | 5.5 µM | 50.1 µM | 44.2 µM | > 100 µM | 9.7 | > 100 | 15 µM | 77.9 | 4.45 | > 100 | 74.4 | 5.2 µM | > 100 | 1.55 µM | 7.49 µM | 3.65 µM | 28.1 | 6.19
C=C1C(=O)O[C@H]2[C@H]1CC/C(COC(=O)NCCc1c[nH]c3ccccc13)=C\CC[C@@]1(C)O[C@@H]21 | 1.17 µM | 2.81 µM | 0.583 µM | 2.86 µM | 1.94 µM | 3.82 µM | 0.585 | 2.26 | 1.91 µM | 6.59 | 3.82 | 16.3 | 21.4 | 5.53 µM | 20.1 | 8.45 µM | 21.8 µM | 1.07 µM | 7.05 | 9.68
C[C@]12CC[C@H]3[C@@H](CC=C4C[C@@H](O)CC[C@@]43C)[C@@H]1C/C(=C\c1cccc(OCCCn3ccnc3)c1)[C@@H]2O | 10.5 µM | 35 µM | 8.1 µM | 34.3 µM | 15.7 µM | 35.9 µM | 14.5 | 34.2 | 6.55 µM | 32.2 | 13.8 | 31.8 | 26.4 | 17.4 µM | 33.6 | 14.1 µM | 28.8 µM | 6.67 µM | 47.7 | 6.8
CN(C)c1ccc2[nH]c(O)c(C=Nc3ccc(S(N)(=O)=O)cc3)c2c1 | > 25 µM | > 25 µM | > 25 µM | > 25 µM | > 25 µM | > 25 µM | 19 | > 25 | > 25 µM | > 25 | > 25 | > 25 | > 25 | > 25 µM | > 25 | > 25 µM | > 25 µM | 13.5 µM | > 25 | > 25
C[C@]12CC[C@@H]3c4ccc(OCC(=O)O)cc4CC[C@H]3[C@@H]1CCC2=O | – | > 100 µM | – | 0.317 µM | – | > 100 µM | – | > 100 | – | 64.4 | – | > 100 | > 100 | – | > 100 | – | > 100 µM | – | > 100 | –
